From ChEMBL document CHEMBL1121515 (J Med Chem, 1980)
Active and inactive are the calls of the source. The rule behind the calls is not given here.

Columns and labels:
Rattus norvegicus [1] = test: Conditioned avoidance response (CAR) was measured in rats at 10 mg/kg; Inactive; assay type: functional, organism-based; set-up: dose 10 mg/kg
Mus musculus [2] = organism: Mus musculus; test: Relative CNS activity of compound was measured in mice (++ =for activity in 4-5 assays); assay type: functional, organism-based; details: Central nervous system
Rattus norvegicus [3] = test: Conditioned avoidance response (CAR) was measured in rats at 40 mg/kg; Active; assay type: functional, organism-based; set-up: dose 40 mg/kg
[4] = Lethal dose was measured in mice 0.5 hr post intraperitoneal administration; assay type: toxicity, organism-based; details: mouse, in vivo, ip
Rattus norvegicus [5] = organism: Rattus norvegicus; test: Conditioned avoidance response (CAR) was measured in rats; I = inactive; assay type: functional, organism-based
Mus musculus [6] = organism: Mus musculus; test: Relative CNS activity of compound was measured in mice; (-) </= […]; assay type: functional, Central nervous system
Rattus norvegicus [7] = organism: Rattus norvegicus; test: Conditioned avoidance response (CAR) was measured in rats; Inactive; assay type: functional, organism-based
Rattus norvegicus [8] = test: Conditioned avoidance response (CAR) was measured in rats at 20 mg/kg doses; I = inactive; assay type: functional, organism-based; set-up: dose 20 mg/kg
Rattus norvegicus [9] = test: Conditioned avoidance response (CAR) was measured in rats at 5 mg/kg doses; I = inactive; assay type: functional, organism-based; set-up: dose 5 mg/kg
Mus musculus [10] = organism: Mus musculus; test: Relative CNS activity of compound was measured in mice (for activity in 2-3 assays); assay type: functional, organism-based; details: Central nervous system
Rattus norvegicus [11] = test: Conditioned avoidance response (CAR) was measured in rats at 10 mg/kg; I = inactive; assay type: functional, organism-based; set-up: dose 10 mg/kg
Rattus norvegicus [12] = test: Conditioned avoidance response (CAR) was measured in rats at 20 mg/kg; A = active; assay type: functional, organism-based; set-up: dose 20 mg/kg
Rattus norvegicus [13] = test: Conditioned avoidance response (CAR) was measured in rats at 40 mg/kg;A = active; assay type: functional, organism-based; set-up: dose 40 mg/kg
Rattus norvegicus [14] = test: Conditioned avoidance response (CAR) was measured in rats at 10 mg/kg;I = inactive; assay type: functional, organism-based; set-up: dose 10 mg/kg
Mus musculus [15] = organism: Mus musculus; test: Relative CNS activity of compound was measured in mice (+++ =for activity in > 6 assays); assay type: functional, organism-based; details: Central nervous system
Rattus norvegicus [16] = test: Conditioned avoidance response (CAR) was measured in rats at 40 mg/kg; A = active; assay type: functional, organism-based; set-up: dose 40 mg/kg

## COc1cccc(-c2cccc3c2CNCC3)c1.Cl
Rattus norvegicus [1]
  CAR: inactive
Mus musculus [2]
  Activity: Active
Rattus norvegicus [3]
  CAR: Active
[4]
  LD50 at 0.5 h: < 160 mg/kg

## Cl.c1ccc(CN2CCc3cccc(-c4ccccc4)c3C2)cc1
[4]
  LD50 at 0.5 h: 158 mg/kg
Rattus norvegicus [5]
  CAR: inactive
Mus musculus [6]
  Activity: <=1

## COc1cccc(-c2cccc3c2CN(Cc2ccccc2)CC3)c1.Cl
[4]
  LD50 at 0.5 h: > 320 mg/kg
Mus musculus [6]
  Activity: <=1
Rattus norvegicus [7]
  CAR: inactive

## CC1Cc2cccc(-c3ccccc3)c2CN1.Cl (configuration not stated)
[4]
  LD50 at 0.5 h: 146 mg/kg
Mus musculus [6]
  Activity: <=1
Rattus norvegicus [8]
  CAR: inactive
Rattus norvegicus [9]
  CAR: inactive

## COc1ccccc1-c1cccc2c1CN(Cc1ccccc1)CC2.Cl
[4]
  LD50 at 0.5 h: > 160 mg/kg
Mus musculus [6]
  Activity: <=1
Rattus norvegicus [7]
  CAR: inactive

## COc1cccc(-c2cccc3c2CN(C)CC3)c1.Cl
Rattus norvegicus [1]
  CAR: inactive
Mus musculus [10]
  Activity: Weak activity
Rattus norvegicus [3]
  CAR: Active
[4]
  LD50 at 0.5 h: 156 mg/kg

## Br.CC1Cc2cccc(-c3ccccc3)c2CN1C (configuration not stated)
Mus musculus [2]
  Activity: Active
[4]
  LD50 at 0.5 h: < 320 mg/kg
Rattus norvegicus [5]
  CAR: inactive

## Cl.c1ccc(-c2cccc3c2CNCC3)cc1
Rattus norvegicus [11]
  CAR: inactive
[4]
  LD50 at 0.5 h: 82 mg/kg
Mus musculus [6]
  Activity: <=1
Rattus norvegicus [12]
  CAR: Active

## COc1ccccc1-c1cccc2c1CN(C)CC2.Cl
Rattus norvegicus [1]
  CAR: inactive
Rattus norvegicus [3]
  CAR: Active
[4]
  LD50 at 0.5 h: 81 mg/kg
Mus musculus [6]
  Activity: <=1

## CN1CCc2cccc(-c3ccccc3)c2C1.O=C(O)/C=C/C(=O)O
Rattus norvegicus [13]
  CAR: Active
Rattus norvegicus [14]
  CAR: inactive
[4]
  LD50 at 0.5 h: < 320 mg/kg
Mus musculus [15]
  Activity: Weak activity

## COc1ccccc1-c1cccc2c1CNCC2.Cl
Mus musculus [2]
  Activity: Active
[4]
  LD50 at 0.5 h: 81 mg/kg

## CC1Cc2cccc(-c3ccccc3)c2CN1Cc1ccccc1.Cl (configuration not stated)
Rattus norvegicus [16]
  CAR: Active
Mus musculus [10]
  Activity: Weak activity
Rattus norvegicus [14]
  CAR: inactive
[4]
  LD50 at 0.5 h: 227 mg/kg
